Assays:
SHP2 = SHP2 (Homo sapiens (Human), UniProt Q06124); assay: SHP2 Biochemical Assay (DiFMUP conversion, pIRS1-activated); details: Table 19; head prints unit as "-M"
Outline: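 Human SHP2 (10 pM) pre-incubated 30 min with compound and […] pIRS1 activating peptide, then 50 μM DiFMUP added; buffer 25 mM Bis-Tris propane pH 7.0, 150 mM NaCl, 5% DMSO. Fluorescence rate (ex 360/em 450 nm) over 30 min; IC50 by four-parameter fit, averaged across experiments.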

[1] = test system: pERK (phospho-p44/42 ERK) in HCC827 cells; assay: Cellular pERK Inhibition Assay, Method A (In-Cell Western); format: cell-based; details: Homo sapiens, Table 19, head prints unit as "-M", read-out: pERK (IC50) Method A
Outline: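 HCC827 cells in RPMI/10% FBS were treated with compounds in serum-free medium (0.2% DMSO final) at 37 °C for the indicated time, in quadruplicate. Fixed cells were immunostained for phospho-p44/42 ERK and read by infrared imaging. Blank-subtracted signal was expressed as % of DMSO control; IC50 from four-parameter logistic fit, averaged across experiments.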

Sequence of SHP2 (Q06124 whole entry): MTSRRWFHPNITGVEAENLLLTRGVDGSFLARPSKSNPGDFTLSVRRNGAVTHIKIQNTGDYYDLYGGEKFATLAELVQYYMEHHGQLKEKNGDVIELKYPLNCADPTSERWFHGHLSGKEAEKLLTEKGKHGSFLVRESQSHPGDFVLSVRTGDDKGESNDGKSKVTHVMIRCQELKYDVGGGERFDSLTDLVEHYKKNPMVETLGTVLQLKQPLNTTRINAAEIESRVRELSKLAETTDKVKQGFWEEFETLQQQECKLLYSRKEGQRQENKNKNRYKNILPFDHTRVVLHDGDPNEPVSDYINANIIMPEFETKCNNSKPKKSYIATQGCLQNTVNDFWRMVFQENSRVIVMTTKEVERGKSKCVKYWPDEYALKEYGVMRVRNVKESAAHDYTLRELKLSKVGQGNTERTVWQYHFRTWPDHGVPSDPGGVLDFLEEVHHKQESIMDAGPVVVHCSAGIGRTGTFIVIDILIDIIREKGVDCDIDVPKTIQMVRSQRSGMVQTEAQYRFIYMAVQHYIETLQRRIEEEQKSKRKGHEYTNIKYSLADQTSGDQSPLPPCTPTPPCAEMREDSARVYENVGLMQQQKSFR

SMILES	IC50 (SHP2) [nM]	IC50 [1] [nM]
Cn1c(N2C3CCCC2CNC3)nc2[nH]cc(-c3ccc4ncsc4c3Cl)c2c1=O [Example 108, 2-(3,9-diazabicyclo[3.3.1]nonan-9-yl)-5-(7-chlorobenzo[d]thiazol-6-yl)-3-methyl-3,7-dihydro-4H-pyrrolo[2,3-d]pyrimidin-4-one]	4	90
CCn1nc2ccc(-c3c[nH]c4nc(N5[C@H]6CC[C@@H]5[C@H](N)C6)n(C)c(=O)c34)c(Cl)c2c1C(F)F [Example 109, 2-((1R,2R,4S)-2-amino-7-azabicyclo[2.2.1]heptan-7-yl)-5-(4-chloro-3-(difluoromethyl)-2-ethyl-2H-indazol-5-yl)-3-methyl-3,7-dihydro-4H-pyrrolo[2,3-d]pyrimidin-4-one]	6.5	120
CCn1nc2ccc(-c3c[nH]c4nc(N5[C@H]6CC[C@@H]5[C@H](N)C6)n(C)c(=O)c34)c(Cl)c2c1CO [Example 110, 2-((1R,2R,4S)-2-amino-7-azabicyclo[2.2.1]heptan-7-yl)-5-(4-chloro-2-ethyl-3-(hydroxymethyl)-2H-indazol-5-yl)-3-methyl-3,7-dihydro-4H-pyrrolo[2,3-d]pyrimidin-4-one]	14	1700
CCn1cc2c(Cl)c(-c3n[nH]c4nc(N5C6CCCC5CNC6)n(C)c(=O)c34)ccc2n1 [Example 111, 6-(3,9-diazabicyclo[3.3.1]nonan-9-yl)-3-(4-chloro-2-ethyl-2H-indazol-5-yl)-5-methyl-1,5-dihydro-4H-pyrazolo[3,4-d]pyrimidin-4-one]	26	410
CCn1cc2c(Cl)c(-c3n[nH]c4nc(N5[C@H]6CC[C@@H]5[C@H](N)C6)n(C)c(=O)c34)ccc2n1 [Example 112, 6-((1R,2R,4S)-2-amino-7-azabicyclo[2.2.1]heptan-7-yl)-3-(4-chloro-2-ethyl-2H-indazol-5-yl)-5-methyl-1,5-dihydro-4H-pyrazolo[3,4-d]pyrimidin-4-one]	13	260
Cc1nc2ccc(-c3n[nH]c4nc(N5[C@H]6CC[C@@H]5[C@H](N)C6)n(C)c(=O)c34)c(Cl)c2s1 [Example 113, 6-((1R,2R,4S)-2-amino-7-azabicyclo[2.2.1]heptan-7-yl)-3-(7-chloro-2-methylbenzo[d]thiazol-6-yl)-5-methyl-1,5-dihydro-4H-pyrazolo[3,4-d]pyrimidin-4-one]	4.5	78
Cn1nc2ccc(-c3n[nH]c4nc(N5[C@H]6CC[C@@H]5[C@H](N)C6)n(C)c(=O)c34)c(Cl)c2c1Cl [Example 114, 6-((1R,2R,4S)-2-amino-7-azabicyclo[2.2.1]heptan-7-yl)-3-(3,4-dichloro-2-methyl-2H-indazol-5-yl)-5-methyl-1,5-dihydro-4H-pyrazolo[3,4-d]pyrimidin-4-one]	5.5	73
CCn1cc2c(Cl)c(-c3n[nH]c4nc(N5[C@@H]6CC[C@H]5C[C@@](C)(N)C6)n(C)c(=O)c34)ccc2n1 [Example 115, 6-(endo-3-amino-3-methyl-8-azabicyclo[3.2.1]octan-8-yl)-3-(4-chloro-2-ethyl-2H-indazol-5-yl)-5-methyl-1,5-dihydro-4H-pyrazolo[3,4-d]pyrimidin-4-one]	46	490
Cn1nc2ccc(-c3n[nH]c4nc(N5C6CCCC5CNC6)n(C)c(=O)c34)c(Cl)c2c1Cl [Example 116, 6-(3,9-diazabicyclo[3.3.1]nonan-9-yl)-3-(3,4-dichloro-2-methyl-2H-indazol-5-yl)-5-methyl-1,5-dihydro-4H-pyrazolo[3,4-d]pyrimidin-4-one]	9	100
Cn1cc2c(Cl)c(-c3n[nH]c4nc(N5C6CCCC5CNC6)n(C)c(=O)c34)ccc2n1 [Example 117, 6-(3,9-diazabicyclo[3.3.1]nonan-9-yl)-3-(4-chloro-2-methyl-2H-indazol-5-yl)-5-methyl-1,5-dihydro-4H-pyrazolo[3,4-d]pyrimidin-4-one]	25	640
CCn1cc2c(Cl)c(-c3n[nH]c4nc(N5[C@H]6CC[C@@H]5[C@H](NC)C6)n(C)c(=O)c34)ccc2n1 [Example 118, 3-(4-chloro-2-ethyl-2H-indazol-5-yl)-5-methyl-6-((1R,2R,4S)-2-(methylamino)-7-azabicyclo[2.2.1]heptan-7-yl)-1,5-dihydro-4H-pyrazolo[3,4-d]pyrimidin-4-one]	49	1100
CN[C@@H]1C[C@@H]2CC[C@H]1N2c1nc2[nH]nc(-c3ccc4nn(C)c(Cl)c4c3Cl)c2c(=O)n1C [Example 119, 3-(3,4-dichloro-2-methyl-2H-indazol-5-yl)-5-methyl-6-((1R,2R,4S)-2-(methylamino)-7-azabicyclo[2.2.1]heptan-7-yl)-1,5-dihydro-4H-pyrazolo[3,4-d]pyrimidin-4-one]	17	290
CN[C@@H]1C[C@@H]2CC[C@H]1N2c1nc2[nH]nc(-c3ccc4nn(C)cc4c3Cl)c2c(=O)n1C [Example 120, 3-(4-chloro-2-methyl-2H-indazol-5-yl)-5-methyl-6-((1R,2R,4S)-2-(methylamino)-7-azabicyclo[2.2.1]heptan-7-yl)-1,5-dihydro-4H-pyrazolo[3,4-d]pyrimidin-4-one]	29	550
CN[C@@H]1C[C@@H]2CC[C@H]1N2c1nc2[nH]nc(-c3ccc4nn(C)c(Cl)c4c3F)c2c(=O)n1C [Example 121, 3-(3-chloro-4-fluoro-2-methyl-2H-indazol-5-yl)-5-methyl-6-((1R,2R,4S)-2-(methylamino)-7-azabicyclo[2.2.1]heptan-7-yl)-1,5-dihydro-4H-pyrazolo[3,4-d]pyrimidin-4-one]	16	210
Cn1c(N2C3CCCC2CNC3)nc2[nH]nc(-c3ccc4ncsc4c3Cl)c2c1=O [Example 122, 6-(3,9-diazabicyclo[3.3.1]nonan-9-yl)-3-(7-chlorobenzo[d]thiazol-6-yl)-5-methyl-1,5-dihydro-4H-pyrazolo[3,4-d]pyrimidin-4-one]	8	140
CN[C@@H]1C[C@@H]2CC[C@H]1N2c1nc2[nH]nc(-c3ccc4ncsc4c3Cl)c2c(=O)n1C [Example 123, 3-(7-chlorobenzo[d]thiazol-6-yl)-5-methyl-6-((1R,2R,4S)-2-(methylamino)-7-azabicyclo[2.2.1]heptan-7-yl)-1,5-dihydro-4H-pyrazolo[3,4-d]pyrimidin-4-one]	18	170
CN[C@@H]1C[C@@H]2CC[C@H]1N2c1nc2[nH]nc(-c3ccc4nc(C)sc4c3Cl)c2c(=O)n1C [Example 124, 3-(7-chloro-2-methylbenzo[d]thiazol-6-yl)-5-methyl-6-((1R,2R,4S)-2-(methylamino)-7-azabicyclo[2.2.1]heptan-7-yl)-1,5-dihydro-4H-pyrazolo[3,4-d]pyrimidin-4-one]	19	430
CCn1nc2ccc(-c3n[nH]c4nc(N5[C@H]6CC[C@@H]5[C@H](N)C6)n(C)c(=O)c34)c(Cl)c2c1Cl [Example 127, 6-((1R,2R,4S)-2-amino-7-azabicyclo[2.2.1]heptan-7-yl)-3-(3,4-dichloro-2-ethyl-2H-indazol-5-yl)-5-methyl-1,5-dihydro-4H-pyrazolo[3,4-d]pyrimidin-4-one]	3.7	63

— US12037345B2, “Heterobicyclic compounds for inhibiting the activity of SHP2” (TAIHO PHARMACEUTICAL CO., LTD., priority 2018, dated 2024)
